≈ marks a conversion by molar mass, not a printed value.
Columns and labels:
Experiment in all cases: In vitro antifungal activity, microbroth dilution MIC
Format in all cases: cell-based
[1] = tested on: Aspergillus furnigatus B. 19119; conditions: A furnigatus B. 19119, RPMI-1640, 35° C., 4 to 48 hours
Outline: (§1)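 Broth microdilution adapted from NCCLS M27, in RPMI-1640 with 0.165 M MOPS, pH 7.0. Yeast or mould inoculum at 2×10^3 CFU/ml was mixed 1:1 with DMSO-derived compound solutions (200 to 0.10 μg/ml before mixing) and incubated at 35 °C for 4 to 48 h. MIC was the concentration showing no growth.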

[2] = tested on: Aspergillus niger A. 16404; conditions: A. niger A. 16404, RPMI-1640, 35° C., 4 to 48 hours
Outline: as §1

[3] = tested on: Candida albicans A. 10231; conditions: C. albicans A. 10231, RPMI-1640, 35° C., 4 to 48 hours
Outline: as §1

Candida albicans C1-2 = conditions: C. albicans C1-2, RPMI-1640, 35° C., 4 to 48 hours
Outline: as §1

[4] = tested on: Candida albicans IFO. 1385; conditions: C. albicans IFO. 1385, RPMI-1640, 35° C., 4 to 48 hours
Outline: as §1

Candida krusei K. 11655 = conditions: C. krusei K. 11655, RPMI-1640, 35° C., 4 to 48 hours
Outline: as §1

[5] = tested on: Candida parapsitosis A. 7330; conditions: C. parapsitosis A. 7330, RPMI-1640, 35° C., 4 to 48 hours
Outline: as §1

[6] = tested on: Candida pseudotropicalis K. 11658; conditions: C. pseudotropicalis K. 11658, RPMI-1640, 35° C., 4 to 48 hours
Outline: as §1

[7] = tested on: Candida tropicalis A. 13803; conditions: C. tropicalis A. 13803, RPMI-1640, 35° C., 4 to 48 hours
Outline: as §1

[8] = tested on: Cryptococcus neoformans A. 34144; conditions: Cry. neoformans A. 34144, RPMI-1640, 35° C., 4 to 48 hours
Outline: as §1

[9] = tested on: Cryptococcus neoformans B. 42419; conditions: Cry. neoformans B. 42419, RPMI-1640, 35° C., 4 to 48 hours
Outline: as §1

[10] = tested on: Cryptococcus neoformans IFM. 40092; conditions: Cry. neoformans IFM. 40092, RPMI-1640, 35° C., 4 to 48 hours
Outline: as §1

[11] = tested on: Torulopsis glabrata B. 16205; conditions: T. glabrata B. 16205, RPMI-1640, 35° C., 4 to 48 hours
Outline: as §1

[12] = tested on: Trichophyton mentagrophytes A. 9129; conditions: T. mentagrophytes A. 9129, RPMI-1640, 35° C., 4 to 48 hours
Outline: as §1

[13] = tested on: Trichophyton mentagrophytes B. 32663; conditions: T. mentagrophytes B. 32663, RPMI-1640, 35° C., 4 to 48 hours
Outline: as §1

Compound	Minimal inhibitory concentration (MIC) [1] [µg/mL]	Minimal inhibitory concentration (MIC) [2] [µg/mL]	Minimal inhibitory concentration (MIC) [3] [µg/mL]	Minimal inhibitory concentration (MIC) (Candida albicans C1-2) [µg/mL]	Minimal inhibitory concentration (MIC) [4] [µg/mL]	Minimal inhibitory concentration (MIC) (Candida krusei K. 11655) [µg/mL]	Minimal inhibitory concentration (MIC) [5] [µg/mL]	Minimal inhibitory concentration (MIC) [6] [µg/mL]	Minimal inhibitory concentration (MIC) [7] [µg/mL]	Minimal inhibitory concentration (MIC) [8] [µg/mL]	Minimal inhibitory concentration (MIC) [9] [µg/mL]	Minimal inhibitory concentration (MIC) [10] [µg/mL]	Minimal inhibitory concentration (MIC) [11] [µg/mL]	Minimal inhibitory concentration (MIC) [12] [µg/mL]	Minimal inhibitory concentration (MIC) [13] [µg/mL]
Cc1ccc(C(=C(F)OCC2COC(Cn3ccnc3)(c3ccc(Cl)cc3Cl)O2)C(F)(F)F)cc1C (stereo not drawn) [Ex. 23]	50.0 (≈ 91.7 µM)	100 (≈ 183 µM)	6.25 (≈ 11.5 µM)	6.25 (≈ 11.5 µM)	0.78 (≈ 1.43 µM)	100 (≈ 183 µM)	>100	100 (≈ 183 µM)	25.0 (≈ 45.8 µM)	1.56 (≈ 2.86 µM)	1.56 (≈ 2.86 µM)	0.39 (≈ 0.715 µM)	12.5 (≈ 22.9 µM)	12.5 (≈ 22.9 µM)	6.25 (≈ 11.5 µM)
Cc1cc(C)cc(C(=C(F)OCC2COC(Cn3ccnc3)(c3ccc(Cl)cc3Cl)O2)C(F)(F)F)c1 (stereo not drawn) [Ex. 24]	50.0 (≈ 91.7 µM)	100 (≈ 183 µM)	6.25 (≈ 11.5 µM)	6.25 (≈ 11.5 µM)	0.78 (≈ 1.43 µM)	>100	>100	100 (≈ 183 µM)	25.0 (≈ 45.8 µM)	0.78 (≈ 1.43 µM)	1.56 (≈ 2.86 µM)	0.39 (≈ 0.715 µM)	12.5 (≈ 22.9 µM)	12.5 (≈ 22.9 µM)	6.25 (≈ 11.5 µM)
FC(OCC1COC(Cn2ccnc2)(c2ccc(Cl)cc2Cl)O1)=C(c1ccc(C(F)(F)F)cc1)C(F)(F)F (stereo not drawn) [Ex. 25]	100 (≈ 171 µM)	100 (≈ 171 µM)	6.25 (≈ 10.7 µM)	12.5 (≈ 21.4 µM)	1.56 (≈ 2.67 µM)	100 (≈ 171 µM)	>100	100 (≈ 171 µM)	50.0 (≈ 85.4 µM)	1.56 (≈ 2.67 µM)	1.56 (≈ 2.67 µM)	0.78 (≈ 1.33 µM)	25.0 (≈ 42.7 µM)	25.0 (≈ 42.7 µM)	12.5 (≈ 21.4 µM)
COc1ccc(C(=C(F)OCC2COC(Cn3ccnc3)(c3ccc(Cl)cc3Cl)O2)C(F)(F)F)cc1 (stereo not drawn) [Ex. 27]	100 (≈ 183 µM)	100 (≈ 183 µM)	25.0 (≈ 45.7 µM)	25.0 (≈ 45.7 µM)	1.56 (≈ 2.85 µM)	>100	>100	>100	>100	1.56 (≈ 2.85 µM)	1.56 (≈ 2.85 µM)	0.78 (≈ 1.43 µM)	25.0 (≈ 45.7 µM)	25.0 (≈ 45.7 µM)	6.25 (≈ 11.4 µM)
FC(OCC1COC(Cn2ccnc2)(c2ccc(Cl)cc2Cl)O1)=C(c1ccc2c(c1)OCO2)C(F)(F)F (stereo not drawn) [Ex. 28]	100 (≈ 178 µM)	100 (≈ 178 µM)	25.0 (≈ 44.5 µM)	25.0 (≈ 44.5 µM)	1.56 (≈ 2.78 µM)	>100	100 (≈ 178 µM)	100 (≈ 178 µM)	100 (≈ 178 µM)	1.56 (≈ 2.78 µM)	1.56 (≈ 2.78 µM)	0.78 (≈ 1.39 µM)	25.0 (≈ 44.5 µM)	25.0 (≈ 44.5 µM)	6.25 (≈ 11.1 µM)
FC(OCC1COC(Cn2ccnc2)(c2ccc(Cl)cc2Cl)O1)=C(c1ccc(Oc2ccccc2)cc1)C(F)(F)F (stereo not drawn) [Ex. 29]	6.25 (≈ 10.3 µM)	100 (≈ 164 µM)	>100	>100	1.56 (≈ 2.56 µM)	>100	>100	>100	>100	1.56 (≈ 2.56 µM)	1.56 (≈ 2.56 µM)	0.20 (≈ 0.328 µM)	12.5 (≈ 20.5 µM)	6.25 (≈ 10.3 µM)	3.13 (≈ 5.14 µM)
FC(OCC1COC(Cn2ccnc2)(c2ccc(Cl)cc2Cl)O1)=C(c1cccc(Cl)c1)C(F)(F)F (stereo not drawn) [Ex. 30]	12.5 (≈ 22.7 µM)	25.0 (≈ 45.3 µM)	25.0 (≈ 45.3 µM)	25.0 (≈ 45.3 µM)	1.56 (≈ 2.83 µM)	>100	>100	>100	>100	0.78 (≈ 1.41 µM)	0.78 (≈ 1.41 µM)	0.20 (≈ 0.362 µM)	12.5 (≈ 22.7 µM)	6.25 (≈ 11.3 µM)	1.56 (≈ 2.83 µM)
